Source: patent US20220397566A1, “GAMMA-SECRETASE STABILIZING COMPOUND SCREENING ASSAY” (VIB VZW, priority 2019, published 2022)

Experiments:
Type in all cases: cell-based, mouse
[1] = tested on: LAMP1-positive organelles; experiment: Size area of LAMP1-positive organelles per cell; conditions: 1 μM, 16 hrs
Method: FIG. 1. DAPT relocates PSEN1/g-secretase to late endosomes. (A) PSEN1 and PSEN2 double knock-out (dKO) MEFs stably expressing GFP-PSEN1 or GFP-PSEN2 were treated for 16 h with 1 μM of DAPT or DMSO and immunostained for GFP (green) and LAMP1 antibodies (red). (B) Quantification of (A) using Mander's coefficient. (C) Ratio of GFP intensity in LAMP1-positive structures over total GFP intensity in the cell, normalized to DMSO-treated cells (control=Ctrl). (D) Quantification of size area of LAMP1-positive organelles per cell showing no significant differences between DMSO and DAPT-treated cells. (E) PSEN1, PSEN2 and NCT triple KO MEFs stably rescued with NCT-SNAP and GFP-PSEN1 were treated for 16 h with 1 μM of DAPT or DMSO (Ctrl). […] All graphs show the median with 95% confidence interval (n=3, ˜20 cells per experiments; p-values are calculated using Mann-Whitney test; ns means non-significant).
Cells were plated on glass coverslips, transfected 24 h later and processed for indirect immunolabeling the next day (Sannerud et al 2011 Proc Natl Acad Sci USA 108). […] ImageJ software with the plugin JACoP (Bolte and Cordelieres 2006 J Microsc 224) was used for signal overlap quantification (Mander's coefficient). Images were acquired with identical settings and regions of interest (ROI) covering whole cells were used for quantification.

[2] = target: T1, g-secretase subunits (Homo sapiens, UniProt P49768); experiment: Expression of g-secretase subunits (Western blot); conditions: 1 μM DAPT; data not shown
T1 construct: expressed in transfected cells
Method: First, in the PSEN1 KO mouse embryonic fibroblasts (MEFs) rescued with EGFP-PSEN1 (see Example 1) the expression of the g-secretase subunits was tested and found not affected by administering any of the 12 compounds, including DAPT that was used as positive control (data not shown).
Protein concentrations were determined by the Bio-Rad DC protein assay (Bio-Rad). Samples were separated by SDS-PAGE (4-12% Bis-Tris NuPAGE gels in MES running buffer (ThermoFisher Scientific) and transferred onto nitrocellulose membranes (ThermoFisher Scientific). After blocking in 5% non-fat milk, membranes were incubated with primary antibody (4° C., overnight) followed by washing and incubation with horseradish peroxidase (HRP)-conjugated secondary antibodies (1 h, room temperature). After final washing, immunodetection was done using enhanced chemiluminescence (Western Lightning-Plus ECL, PerkinElmer), and immunoreactive protein bands were digitally captured and quantified on a Fuji MiniLAS 3000 imager (Fuji, Dusseldorf, Germany) using Aida Image Analyzer software (Raytest, Germany). Data are represented as mean±SEM of at least three independent experiments.

[3] = tested on: transferrin receptor; experiment: Cell surface biotinylation internalization assay, transferrin receptor; conditions: 16 h time point, DAPT 1 μM
Method: All reagents, except otherwise stated, were kept on ice. Cells (450.000 cells for 1 h kinetic and 300.000 cells for 16 h) were plated on 6-cm dishes. 48 h after plating, cells were placed on ice, washed in PBS (pH 8) and next incubated in PBS (pH 8) supplemented with 0.25 mg/ml sulfo-NHS-SS-Biotin (Pierce) (10 min at 4° C.). Excess of biotin was washed out with PBS and cells were incubated in quench buffer (0.5% BSA, 100 mM Glycine in PBS) for 15 min at 4° C. Cells were then washed with PBS and incubated at 37° C. in complete pre-warmed medium (with or without DAPT 1 μM) for the appropriate time or kept at 4° C. as a control. Endocytosis was quickly stopped by placing the dishes back on ice and washing the cells with ice-cold PBS. Remaining biotin at the cell surface was cleaved off by incubating the cells twice in PBS containing 100 mM 2-sodium-2-mercaptoethanesulfonate (Sigma) as a reducing agent (15 min at 4° C.). […] Total protein was measured and biotinylated proteins were pulled down from equal amounts of extracts using streptavidin Sepharose beads (Pierce) (4° C., overnight on a rotation wheel). […] To evaluate the internalized pool for each protein to total cell surface, the (R37-R0)/NR*100 ratio for each time point were quantified. For the 16 h time point, the R37/NR*100 were quantified for each condition. […]

[4] = tested on: FAD-PSEN1 mutants; experiment: Late endosomal localisation of FAD-PSEN1 mutants in PSEN1 KO MEFs; conditions: DAPT 1 μM 16 h
Method: FIG. 6. Familial Alzheimer's disease (FAD) mutations in PSEN1 differently affect g-secretase localization in late endosomes. Ratio of GFP intensity in LAMP1 endosomes over total GFP signal in PSEN1 KO MEFs stably rescued with GFP-PSEN1 wild-type (Wt) or the indicated FAD-PSEN1 mutants and treated with DMSO or DAPT (1 μM) 16 h.
As these mutations were reported to have an early onset and high thermo-instability (reflecting lowest processivity), we extended this experiment to other mutations reported in Szaruga et al (2017 Cell 170). In line with the above, the PSEN1-P88L mutation translocated PSEN1/g-secretase to late endosomes as well. […] These mutations have a higher onset and affect the Ab processivity less as compared to L166P, G384A and P88L mutants.

steady state of PSEN1 or PSEN2 protein levels [2]: no measurable effect
Structure (SMILES): C[C@H](NC(=O)Cc1cc(F)cc(F)c1)C(=O)N[C@H](C(=O)OC(C)(C)C)c1ccccc1 [DAPT, N—[N-(3,5-difluorophenacetyl)-L-alanyl]-S-phenylglycine t-butyl ester]
total size area of LAMP1-positive organelles [1]: no measurable effect
biotinylated transferrin receptor pulled down [3]: no differences were found
late endosomal localization of mutant PSEN1 ([4]; L166P, G384A, P88L mutants): did not further increase late endosomal localization
shift of PSEN1/g-secretase to late endosomes ([4]; Y115H and E280A mutants): did not shift PSEN1/g-secretase to late endosomes, unless treated with DAPT
